Data reported in ChEMBL document CHEMBL1124976, “An initial three-component pharmacophore for specific serotonin-3 receptor ligands” (J Med Chem, 1990).

What was measured:
[1] = molecular target: Serotonin 3 (5-HT3) receptor (Rattus norvegicus) (UniProt P35563+Q9JJ16); experiment: Tested for inhibition of Bezold-Jarisch (B-J) reflex mediated by 5-hydroxytryptamine 3 receptor in rats after intravenous administration (2.0 ug/kg); type: functional, organism-based
[2] = molecular target: T1, 5-hydroxytryptamine receptor 3B (Mus musculus, UniProt Q9JHJ5); experiment: In vitro binding affinity for the 5-hydroxytryptamine 3 receptor was determined with NG-108-15 mouse neuroblastoma-glioma cells
T1 sequence (Q9JHJ5 whole entry): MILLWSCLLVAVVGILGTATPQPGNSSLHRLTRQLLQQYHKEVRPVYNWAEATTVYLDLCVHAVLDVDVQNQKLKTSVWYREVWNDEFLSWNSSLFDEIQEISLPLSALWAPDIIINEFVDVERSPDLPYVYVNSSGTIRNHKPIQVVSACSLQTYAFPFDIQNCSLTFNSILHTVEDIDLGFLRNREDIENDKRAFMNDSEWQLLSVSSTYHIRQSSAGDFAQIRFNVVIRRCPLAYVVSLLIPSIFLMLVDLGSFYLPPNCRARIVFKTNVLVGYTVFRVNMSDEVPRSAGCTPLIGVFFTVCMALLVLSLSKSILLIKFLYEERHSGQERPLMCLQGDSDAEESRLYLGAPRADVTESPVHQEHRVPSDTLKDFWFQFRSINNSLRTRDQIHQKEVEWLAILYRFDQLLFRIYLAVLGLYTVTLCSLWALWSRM

[3] = molecular target: 5-hydroxytryptamine receptor 3A (Mus musculus) (UniProt P23979); experiment: In vitro binding affinity for the 5-hydroxytryptamine 3 receptor was determined with NG-108-15 mouse neuroblastoma-glioma cells
Chain of 5-hydroxytryptamine receptor 3A (Mus musculus) (P23979 whole entry, looked up): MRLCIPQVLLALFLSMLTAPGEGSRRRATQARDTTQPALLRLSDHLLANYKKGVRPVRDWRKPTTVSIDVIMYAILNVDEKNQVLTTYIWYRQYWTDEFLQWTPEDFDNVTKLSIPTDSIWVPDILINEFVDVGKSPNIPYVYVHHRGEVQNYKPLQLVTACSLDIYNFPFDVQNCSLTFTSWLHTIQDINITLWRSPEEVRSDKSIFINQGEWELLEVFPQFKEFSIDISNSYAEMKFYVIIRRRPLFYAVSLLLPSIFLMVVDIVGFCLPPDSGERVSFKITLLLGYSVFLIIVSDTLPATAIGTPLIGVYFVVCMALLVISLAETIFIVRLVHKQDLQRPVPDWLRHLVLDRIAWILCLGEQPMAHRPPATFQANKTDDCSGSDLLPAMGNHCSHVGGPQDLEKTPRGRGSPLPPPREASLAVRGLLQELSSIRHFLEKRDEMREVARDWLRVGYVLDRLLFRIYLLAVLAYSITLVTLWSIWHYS

SMILES	inhibition [1]	Ki [3]	Ki [2]
N=C(N)NCc1ccccn1	–	–	82 nM
CN(Cc1nc(-c2c[nH]c3ccccc23)cs1)C(=N)N	–	–	> 1 nM
Cc1csc(CNC(=N)N)n1	–	–	116 nM
Cc1nc[nH]c1Cc1nc(-c2c[nH]c3ccccc23)cs1	–	–	10 nM
COc1cc(N)c(Cl)cc1C(=O)NC1CN2CCC1CC2 (stereo not drawn)	84%	–	–

More lines, main results first:

inhibition [1]	Ki [3]	SMILES	Ki [2]
43%	–	Cc1nccn1CC1CCc2c(c3ccccc3n2C)C1=O (stereo not drawn)	–
51%	3.3 nM	N=C(N)NCc1nc(-c2c[nH]c3ccccc23)cs1	–
